Source: ChEMBL document CHEMBL5126549, “Overview of SIRT5 as a potential therapeutic target: Structure, function and inhibitors” (Eur J Med Chem, 2022)
*1 amine or outer side, *2 acyl side, *3 side chain or, on linkers, in order; H or OH if unused. Where a SMILES comes first, the peptide text is derived from it. Bridges are numbered along the chain shown (N, C = ends). [ ]: non-standard residue; d: D form. X1 = O=C(O)CCNC(=S)NCCCC[C@H](N[*:1])C(=O)[*:2]; Suberoyl = O=C(CCCCCCC(=O)[*:2])[*:1]

Key:
[1] = target: T1, NAD-dependent protein deacylase sirtuin-5, mitochondrial (Homo sapiens, UniProt Q9NXA8); experiment: Inhibition of GST-tagged SIRT5 (unknown origin) incubated for 10 mins by HPLC based analysis
Target sequence in this assay (Q9NXA8 whole entry): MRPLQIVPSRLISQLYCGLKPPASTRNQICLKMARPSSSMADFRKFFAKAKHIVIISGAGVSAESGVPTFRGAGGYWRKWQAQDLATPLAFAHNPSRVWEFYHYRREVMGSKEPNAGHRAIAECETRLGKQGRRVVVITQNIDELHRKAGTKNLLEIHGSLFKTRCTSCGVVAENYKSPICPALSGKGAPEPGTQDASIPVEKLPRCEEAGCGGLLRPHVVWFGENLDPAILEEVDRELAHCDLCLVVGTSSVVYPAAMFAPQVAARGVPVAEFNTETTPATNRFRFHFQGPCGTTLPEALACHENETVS

[2] = target: T1, NAD-dependent protein deacylase sirtuin-5, mitochondrial; experiment: Inhibition of SIRT5 (unknown origin)
Target sequence in this assay (Q9NXA8 whole entry): as above

[3] = target: T1, NAD-dependent protein deacylase sirtuin-5, mitochondrial; experiment: Inhibition of human recombinant SIRT5 using Benzyl-Lys(succinyl)-AMC as substrate incubated for 2 hrs by fluorescence based assay
Target sequence in this assay (Q9NXA8 whole entry): as above

[4] = target: T2, NAD-dependent protein deacetylase sirtuin-2 (Homo sapiens, UniProt Q8IXJ6); experiment: Inhibition of SIRT2 (unknown origin)
T2 sequence (Q8IXJ6 whole entry): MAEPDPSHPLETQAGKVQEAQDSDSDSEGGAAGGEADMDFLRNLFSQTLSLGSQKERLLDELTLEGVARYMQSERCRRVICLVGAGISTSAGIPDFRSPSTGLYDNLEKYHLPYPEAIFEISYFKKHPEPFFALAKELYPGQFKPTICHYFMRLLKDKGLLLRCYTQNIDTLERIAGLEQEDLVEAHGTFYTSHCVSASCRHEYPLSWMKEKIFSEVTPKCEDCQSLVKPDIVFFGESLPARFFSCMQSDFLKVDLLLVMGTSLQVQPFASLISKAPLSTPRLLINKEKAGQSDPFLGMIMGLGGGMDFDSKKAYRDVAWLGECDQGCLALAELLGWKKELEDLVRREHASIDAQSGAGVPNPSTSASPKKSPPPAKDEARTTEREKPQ

[5] = target: T3, NAD-dependent protein deacetylase sirtuin-1 (Homo sapiens, UniProt Q96EB6); experiment: Inhibition of SIRT1 (unknown origin)
T3 sequence (Q96EB6 whole entry): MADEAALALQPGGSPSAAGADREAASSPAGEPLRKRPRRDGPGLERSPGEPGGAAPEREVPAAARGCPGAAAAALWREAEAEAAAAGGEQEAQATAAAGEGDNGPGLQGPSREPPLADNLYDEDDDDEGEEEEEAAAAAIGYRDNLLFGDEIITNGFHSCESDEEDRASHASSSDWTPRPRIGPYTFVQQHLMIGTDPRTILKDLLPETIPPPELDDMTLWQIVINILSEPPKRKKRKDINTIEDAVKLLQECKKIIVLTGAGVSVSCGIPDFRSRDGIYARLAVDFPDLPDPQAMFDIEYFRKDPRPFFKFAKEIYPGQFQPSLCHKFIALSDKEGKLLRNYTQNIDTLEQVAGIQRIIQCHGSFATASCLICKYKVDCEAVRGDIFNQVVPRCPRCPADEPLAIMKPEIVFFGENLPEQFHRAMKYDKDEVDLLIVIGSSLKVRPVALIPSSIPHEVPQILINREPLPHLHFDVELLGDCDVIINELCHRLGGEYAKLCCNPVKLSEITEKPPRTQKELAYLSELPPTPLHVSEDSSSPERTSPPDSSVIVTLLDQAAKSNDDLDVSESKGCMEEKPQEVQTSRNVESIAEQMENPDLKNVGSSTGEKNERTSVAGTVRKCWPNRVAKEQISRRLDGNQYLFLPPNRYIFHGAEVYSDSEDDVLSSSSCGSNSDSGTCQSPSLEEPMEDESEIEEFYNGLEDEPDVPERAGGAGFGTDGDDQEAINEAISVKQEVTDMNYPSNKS

[6] = target: T1, NAD-dependent protein deacylase sirtuin-5, mitochondrial; experiment: Inhibition of GST-tagged SIRT5 (unknown origin) incubated for 5 mins by HPLC based analysis
Target sequence in this assay (Q9NXA8 whole entry): as the sequence (Q9NXA8 whole entry) above

[7] = target: T1, NAD-dependent protein deacylase sirtuin-5, mitochondrial; experiment: Inhibition of SIRT5 (unknown origin) at 100 uM relative to control
Target sequence in this assay (Q9NXA8 37-310 limits assumed): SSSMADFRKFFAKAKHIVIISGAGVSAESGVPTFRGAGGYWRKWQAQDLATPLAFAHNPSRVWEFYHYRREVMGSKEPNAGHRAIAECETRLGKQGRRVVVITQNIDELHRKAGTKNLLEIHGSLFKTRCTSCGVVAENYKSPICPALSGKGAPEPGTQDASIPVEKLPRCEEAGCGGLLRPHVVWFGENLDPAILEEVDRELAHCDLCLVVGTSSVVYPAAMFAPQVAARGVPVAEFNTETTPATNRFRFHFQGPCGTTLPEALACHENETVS

[8] = target: T1, NAD-dependent protein deacylase sirtuin-5, mitochondrial; experiment: Inhibition of SIRT5 (unknown origin) at 30 uM relative to control
Target sequence in this assay (Q9NXA8 37-310 limits assumed): as above

[9] = target: T4, NAD-dependent protein deacetylase sirtuin-3, mitochondrial (Homo sapiens, UniProt Q9NTG7); experiment: Inhibition of human SIRT3 (118 to 399 aa) expressed in Escherichia coli BL21 cells
T4 sequence (Q9NTG7 whole entry): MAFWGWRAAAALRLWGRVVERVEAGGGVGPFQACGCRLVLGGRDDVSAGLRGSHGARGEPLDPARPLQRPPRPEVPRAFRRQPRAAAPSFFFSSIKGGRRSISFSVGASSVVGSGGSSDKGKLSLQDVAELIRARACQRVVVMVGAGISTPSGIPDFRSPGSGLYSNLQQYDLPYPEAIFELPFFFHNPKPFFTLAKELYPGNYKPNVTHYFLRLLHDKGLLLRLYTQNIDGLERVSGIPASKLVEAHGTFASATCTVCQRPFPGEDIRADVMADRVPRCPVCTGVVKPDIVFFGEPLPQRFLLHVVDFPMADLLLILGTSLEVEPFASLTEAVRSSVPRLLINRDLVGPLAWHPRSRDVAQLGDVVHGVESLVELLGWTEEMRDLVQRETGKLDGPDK

[10] = target: T3, NAD-dependent protein deacetylase sirtuin-1; experiment: Inhibition of human N-terminal His6 tagged SIRT1 (183-505-(GGGS)2-641-665 residues) expressed in Escherichia coli BL21 cells

O=C(O)CCNC(=S)NCCCCC(NC(=O)OCc1ccccc1)C(=O)Nc1ccc(O)cc1 (stereo unspecified)
IC50 [1]: < 15 µM

O=C(O)CCNC(=S)NCCCC[C@H](NS(=O)(=O)c1cccc(F)c1)C(=O)N[C@@H](Cc1c[nH]c2ccccc12)C(=O)NC1CCCC1
IC50 [2]: 0.11 µM

O=C(O)CCNC(=S)NCCCC[C@H](NS(=O)(=O)c1cccc(F)c1)C(=O)N[C@@H](Cc1c[nH]c2ccccc12)C(=O)NC1CCC1
IC50 [2]: < 0.3 µM

N#C/C(=C\c1ccc(-c2ccc(C(=O)O)cc2)o1)C(=O)Nc1ccc(Cl)c([N+](=O)[O-])c1
IC50 [3]: 9.26 µM

CC1(C)CC[C@]2(C(=O)O)CC[C@]3(C)C(=CC[C@@H]4[C@@]5(C)CC[C@H](O)C(C)(C)[C@@H]5CC[C@]43C)[C@@H]2C1 [OLEANOLIC_ACID]
IC50 [2]: 70 µM

N=C(N)NCCCC[C@@H]1NC(=O)CCCCCCC(=O)NCCCC[C@@H](C(N)=O)NC(=O)[C@H](CCCCNC(=S)NCCC(=O)O)NC1=O
IC50 [2]: 13.2 µM

O=C(O)CC(=S)NCCCC[C@H](NC(=O)OCc1ccccc1)C(=O)Nc1ccccc1
IC50 [2]: 5 µM | IC50 [4]: 256 µM | IC50 [5]: 256 µM

CC(=O)N[C@H]1CCCCNC(=O)CCCCCCC(=O)NCCCC[C@@H](C(=O)N[C@H](C(N)=O)[C@@H](C)O)NC(=O)[C@H](CCCCNC(=S)NCCC(=O)O)NC(=O)[C@H](CCCNC(=N)N)NC1=O (Ac-KR[X1]KT-NH2; linker 1-4 via Suberoyl)
IC50 [6]: 7 µM

CC(=O)N[C@H]1CCCCNC(=O)CNC(=O)CCCCCCC(=O)NC(=O)NCCCC[C@@H](C(=O)N[C@H](C(N)=O)[C@@H](C)O)NC(=O)[C@H](CCCCNC(=S)NCCC(=O)O)NC(=O)[C@H](CCCNC(=N)N)NC1=O
IC50 [6]: 6 µM

O=C(O)CCNC(=S)NCCCC[C@H](NS(=O)(=O)c1cccc(F)c1)C(=O)N[C@@H](Cc1c[nH]c2ccccc12)C(=O)NC1CC1
IC50 [2]: < 0.3 µM

N=C(N)NCCCC[C@@H]1NC(=O)CCC(=O)NCCCC[C@@H](C(N)=O)NC(=O)[C@H](CCCCNC(=S)NCCC(=O)O)NC1=O
IC50 [2]: 2.2 µM

O=C(NCCn1c2ccccc2c2ccccc21)Nc1ccc(C(=O)O)cc1
inhibition [7]: 52% | inhibition [8]: 35%

CNC(=O)c1cccc(NC(=O)/C(C#N)=C/c2ccc(-c3ccc(C(=O)O)cc3)o2)c1
IC50 [3]: 8 µM

CC1(C)CC[C@]2(C(=O)O)[C@H](O)C[C@]3(C)C(=CC[C@@H]4[C@@]5(C)CC[C@H](O)C(C)(C)[C@@H]5CC[C@]43C)[C@@H]2C1
IC50 [2]: 40 µM

CC(=O)NC(CCCCNC(=S)NCCC(=O)O)C(=O)Nc1cccc(O)c1 (stereo unspecified)
IC50 [1]: < 15 µM

N=C(N)NCCCC[C@@H]1NC(=O)CCCCC(=O)NCCCC[C@@H](C(N)=O)NC(=O)[C@H](CCCCNC(=S)NCCC(=O)O)NC1=O
IC50 [2]: 6.5 µM

N=C(N)NCCCC[C@@H]1NC(=O)CCNC(=O)CCC[C@@H](C(N)=O)NC(=O)[C@H](CCCCNC(=S)NCCC(=O)O)NC1=O
IC50 [2]: 4 µM

O=C(O)CCNC(=S)NCCCCC(NC(=O)OCc1ccccc1)C(=O)Nc1ccccc1O (stereo unspecified)
IC50 [1]: < 15 µM

N#C/C(=C\c1ccc(-c2ccc(C(=O)O)cc2)o1)C(=O)Nc1ccc(C#N)c(F)c1
IC50 [3]: 5.9 µM

CC1=NN(c2ccc(C)c(Cl)c2)C(=O)/C1=C\c1ccc(-c2ccc(C(=O)O)cc2)o1
IC50 [3]: 18.3 µM

CC(C)(C)OC(=O)NC(CCCCNC(=S)NCCC(=O)O)C(=O)Nc1cccc(O)c1 (stereo unspecified)
IC50 [1]: < 15 µM

CCn1c(=O)n(CC(C)C)c(=O)c2[nH]c(SSc3nc4c([nH]3)c(=O)n(CC(C)C)c(=O)n4CC)nc21
IC50 [9]: 0.43 µM | IC50 [10]: 1.77 µM
